Results from patent publication US9682995B2, “Amino-substituted isothiazoles” (BAYER PHARMA AKTIENGESELLSCHAFT, priority 2013, dated 2017).

Experiments:
human kinase Mps-1 = human kinase Mps-1 (Homo sapiens (Human), UniProt P33981); experiment: Mps-1 kinase assay (TR-FRET); type: biochemical; conditions: 10 μM ATP; read-out: Mps1 avg (IC50 [mol/l])
Protocol: The human kinase Mps-1 phosphorylates a biotinylated substrate peptide. Detection of the phosphorylated product is achieved by time-resolved fluorescence resonance energy transfer (TR-FRET) from Europium-labelled anti-phospho-Serine/Threonine antibody as donor to streptavidin labelled with cross-linked allophycocyanin (SA-XLent) as acceptor. Compounds are tested for their inhibition of the kinase activity.
N-terminally GST-tagged human full length recombinant Mps-1 kinase (purchased from Invitrogen, Karslruhe, Germany, cat. no PV4071) was used. As substrate for the kinase reaction a biotinylated peptide of the amino-acid sequence biotin-Ahx-PWDPDDADITEILG (C-terminus in amide form, purchased from Biosyntan GmbH, Berlin) was used.
For the assay 50 nl of a 100-fold concentrated solution of the test compound in DMSO was pipetted into a black low volume 384 well microtiter plate (Greiner Bio-One, Frickenhausen, Germany), 2 μl of a solution of Mps-1 in assay buffer [0.1 mM sodium-ortho-vanadate, 10 mM MgCl2, 2 mM DTT, 25 mM Hepes pH 7.7, 0.05% BSA (w/v), 0.001% Pluronic F-127] were added and the mixture was incubated for 15 min at 22° C. to allow pre-binding of the test compounds to Mps-1 before the start of the kinase reaction. Then the kinase reaction was started by the addition of 3 μl of a solution of 16.7 μM adenosine-tri-phosphate (ATP, 16.7 μM=>final conc. in the 5 μl assay volume is 10 μM) and peptide substrate (1.67 μM=>final conc. in the 5 μl assay volume is 1 μM) in assay buffer and the resulting mixture was incubated for a reaction time of 60 min at 22° C. The concentration of Mps-1 in the assay was adjusted to the activity of the enzyme lot and was chosen appropriate to have the assay in the linear range, typical enzyme concentrations were in the range of about 0.5 nM (final conc. in the 5 μl assay volume). The reaction was stopped by the addition of 5 μl of a solution of TR-FRET detection reagents (100 mM Hepes pH 7.4, 0.1% BSA, 40 mM EDTA, 140 nM Streptavidin-XLent [#61GSTXLB, Fa. Cis Biointernational, Marcoule, France], 1.5 nM anti-phospho(Ser/Thr)-Europium-antibody [#AD0180, PerkinElmer LAS, Rodgau-Jugesheim, Germany]. Instead of the 1.5 nM anti-phospho(Ser/Thr)-Europium-antibody a mixture of 2 nM unlabeled anti-phospho ser/thr-pro antibody MPM-2 [Millipore cat. #05-368] and 1 nM LANCE EU-W1024 labeled anti-mouse IgG antibody [Perkin-Elmer, product no. AD0077] can be used).
The resulting mixture was incubated 1 h at 22° C. to allow the binding of the phosphorylated peptide to the anti-phospho(Ser/Thr)-Europium-antibody. Subsequently the amount of phosphorylated substrate was evaluated by measurement of the resonance energy transfer from the Europium-labelled anti-phospho(Ser/Thr) antibody to the Streptavidin-XLent. Therefore, the fluorescence emissions at 620 nm and 665 nm after excitation at 350 nm was measured in a Viewlux TR-FRET reader (PerkinElmer LAS, Rodgau-Jugesheim, Germany). The “blank-corrected normalized ratio” (a Viewlux specific readout, similar to the traditional ratio of the emissions at 665 nm and at 622 nm, in which blank and Eu-donor crosstalk are subtracted from the 665 nm signal before the ratio is calculated) was taken as the measure for the amount of phosphorylated substrate. The data were normalised (enzyme reaction without inhibitor=0% inhibition, all other assay components but no enzyme=100% inhibition).

human Bub1 = human Bub1 (Homo sapiens (Human), UniProt O43683); experiment: Bub1 kinase assay (TR-FRET); type: biochemical; conditions: 10 μM ATP; read-out: Bub1 avg (IC50 [mol/l])
Source text: Bub1-inhibitory activity of compounds of the present invention was quantified employing the Bub1 TR-FRET assay as described in the following paragraphs.
N-terminally His6-tagged recombinant catalytic domain of human Bub1 (amino acids 704-1085), expressed in insect cells (Hi5) and purified by Ni-NTA affinity chromatography and subsequent size exclusion chromatography, was used as enzyme. As substrate for the kinase reaction the biotinylated peptide biotin-Ahx-VLLPKKSFAEPG (C-terminus in amid form) was used which can be purchased e.g. form the company Biosyntan (Berlin, Germany).
For the assay 50 nl of a 100 fold concentrated solution of the test compound in DMSO was pipetted into a black low volume 384 well microtiter plate (Greiner Bio-One, Frickenhausen, Germany), 2 μl of a solution of Bub1 in aqueous assay buffer [50 mM Tris/HCl pH 7.5, 10 mM magnesium chloride (MgCl2), 200 mM potassium chloride (KCl), 1.0 mM dithiothreitol (DTT), 0.1 mM sodium ortho-vanadate, 1% (v/v) glycerol, 0.01% (w/v) bovine serum albumine (BSA), 0.005% (v/v) Trition X-100 (Sigma), 1× Complete EDTA-free protease inhibitor mixture (Roche)] were added and the mixture was incubated for 15 min at 22° C. to allow pre-binding of the test compounds to the enzyme before the start of the kinase reaction. Then the kinase reaction was started by the addition of 3 μl of a solution of adenosine-tri-phosphate (ATP, 16.7 μM=>final conc. in the 5 μl assay volume is 10 μM) and substrate (1.67 μM=>final conc. in the 5 μl assay volume is 1 μM) in assay buffer and the resulting mixture was incubated for a reaction time of 60 min at 22° C. The concentration of Bub1 was adjusted depending of the activity of the enzyme lot and was chosen appropriate to have the assay in the linear range, typical concentrations were in the range of 200 ng/ml. The reaction was stopped by the addition of 5 μl of a solution of TR-FRET detection reagents (0.2 μM streptavidine-XL665 [Cisbio Bioassays, Codolet, France] and 1 nM anti-phosho-Serine antibody [Merck Millipore, cat. #35-001] and 0.4 nM LANCE EU-W1024 labeled anti-mouse IgG antibody [Perkin-Elmer, product no. AD0077, as an alternative a Terbium-cryptate-labeled anti-mouse IgG antibody from Cisbio Bioassays can be used]) in an aqueous EDTA-solution (50 mM EDTA, 0.2% (w/v) bovine serum albumin in 100 mM HEPES pH 7.5).
The resulting mixture was incubated 1 h at 22° C. to allow the formation of complex between the phosphorylated biotinylated peptide and the detection reagents. Subsequently the amount of phosphorylated substrate was evaluated by measurement of the resonance energy transfer from the Eu-chelate to the streptavidine-XL. Therefore, the fluorescence emissions at 620 nm and 665 nm after excitation at 350 nm was measured in a TR-FRET reader, e.g. a Rubystar or Pherastar (both from BMG Labtechnologies, Offenburg, Germany) or a Viewlux (Perkin-Elmer). The ratio of the emissions at 665 nm and at […] was taken as the measure for the amount of phosphorylated substrate. The data were normalised (enzyme reaction without inhibitor=0% inhibition, all other assay components but no enzyme=100% inhibition).

Sequence of human kinase Mps-1 (P33981 whole entry): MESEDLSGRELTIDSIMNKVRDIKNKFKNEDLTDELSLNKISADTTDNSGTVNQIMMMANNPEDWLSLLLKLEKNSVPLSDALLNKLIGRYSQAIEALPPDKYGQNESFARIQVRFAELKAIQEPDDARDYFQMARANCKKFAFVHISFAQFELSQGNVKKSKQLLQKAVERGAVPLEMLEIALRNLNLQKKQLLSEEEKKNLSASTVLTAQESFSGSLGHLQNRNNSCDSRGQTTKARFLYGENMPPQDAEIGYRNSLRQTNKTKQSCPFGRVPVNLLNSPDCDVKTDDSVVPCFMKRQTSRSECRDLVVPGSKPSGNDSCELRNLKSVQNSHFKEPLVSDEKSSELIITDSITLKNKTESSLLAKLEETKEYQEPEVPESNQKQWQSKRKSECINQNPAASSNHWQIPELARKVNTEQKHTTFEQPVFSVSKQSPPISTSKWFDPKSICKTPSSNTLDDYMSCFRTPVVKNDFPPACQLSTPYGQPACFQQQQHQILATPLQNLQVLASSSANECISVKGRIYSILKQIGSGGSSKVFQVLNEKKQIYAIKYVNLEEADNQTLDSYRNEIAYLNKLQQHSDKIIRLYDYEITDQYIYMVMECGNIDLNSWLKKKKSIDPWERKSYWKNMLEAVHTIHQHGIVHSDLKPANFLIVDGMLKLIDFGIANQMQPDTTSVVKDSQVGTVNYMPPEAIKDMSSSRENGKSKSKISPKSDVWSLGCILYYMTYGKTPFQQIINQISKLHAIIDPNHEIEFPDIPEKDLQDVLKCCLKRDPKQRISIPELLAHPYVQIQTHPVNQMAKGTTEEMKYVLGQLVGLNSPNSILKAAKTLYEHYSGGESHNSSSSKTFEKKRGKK
Sequence of human Bub1 (O43683 704-1085): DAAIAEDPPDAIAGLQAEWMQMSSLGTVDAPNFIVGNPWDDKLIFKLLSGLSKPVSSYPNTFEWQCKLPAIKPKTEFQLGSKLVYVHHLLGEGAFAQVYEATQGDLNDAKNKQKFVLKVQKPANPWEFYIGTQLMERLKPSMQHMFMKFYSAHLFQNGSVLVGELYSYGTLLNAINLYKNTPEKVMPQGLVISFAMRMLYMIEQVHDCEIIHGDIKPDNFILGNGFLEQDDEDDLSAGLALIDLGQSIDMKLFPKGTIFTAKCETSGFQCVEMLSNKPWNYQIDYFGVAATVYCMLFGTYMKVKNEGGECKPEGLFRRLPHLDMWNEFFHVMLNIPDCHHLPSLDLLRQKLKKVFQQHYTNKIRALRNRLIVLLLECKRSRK

IC50 (human kinase Mps-1) | IC50 (human Bub1) | SMILES
12 µM | > 20 µM | Cc1nsc(Nc2cncc(N(C)C)n2)c1C(=O)Nc1ccc(F)c(F)c1 [Example 105, N-(3,4-Difluorophenyl)-5-{[6-(dimethylamino)pyrazin-2-yl]amino}-3-methyl-1,2-thiazole-4-carboxamide]
> 20 µM | > 20 µM | Cc1nsc(Nc2cnc3ccccc3n2)c1C(=O)Nc1ccc(Cl)c(F)c1 [Example 40, N-(4-Chloro-3-fluorophenyl)-3-methyl-5-(quinoxalin-2-ylamino)-1,2-thiazole-4-carboxamide]
> 20 µM | > 20 µM | COc1ccc(NC(=O)c2c(C)nsc2Nc2cc(C#N)ccn2)cn1 [Example 25, 5-[(4-Cyanopyridin-2-yl)amino]-N-(6-methoxypyridin-3-yl)-3-methyl-1,2-thiazole-4-carboxamide]
> 20 µM | > 20 µM | COc1ccc(NC(=O)c2c(C)nsc2Nc2cnc3c(F)c(F)ccc3n2)cn1 [Example 43, 5-[(5,6-Difluoroquinoxalin-2-yl)amino]-N-(6-methoxypyridin-3-yl)-3-methyl-1,2-thiazole-4-carboxamide]
– | > 20 µM | Cc1nsc(Nc2cc(C#N)ccn2)c1C(=O)Nc1ccc(Oc2ccccc2)nc1 [Example 111, 5-[(4-Cyanopyridin-2-yl)amino]-3-methyl-N-(6-phenoxypyridin-3-yl)-1,2-thiazole-4-carboxamide]
> 20 µM | > 20 µM | CCc1ccccc1NC(=O)c1c(C)nsc1Nc1cnc2ccc(Cl)cc2n1 [Example 41, 5-[(7-Chloroquinoxalin-2-yl)amino]-N-(2-ethylphenyl)-3-methyl-1,2-thiazole-4-carboxamide]
> 20 µM | > 20 µM | Cc1nsc(Nc2cnc3ccccc3n2)c1C(=O)Nc1ccc(Oc2ccccc2)nc1 [Example 112, 3-Methyl-N-(6-phenoxypyridin-3-yl)-5-(quinoxalin-2-ylamino)-1,2-thiazole-4-carboxamide]
> 20 µM | > 20 µM | Cc1nsc(Nc2cnc3cc(F)ccc3n2)c1C(=O)Nc1ccc(F)c(F)c1 [Example 46, N-(3,4-Difluorophenyl)-5-[(6-fluoroquinoxalin-2-yl)amino]-3-methyl-1,2-thiazole-4-carboxamide]

The next lines start with the compound.

SMILES | IC50 (human kinase Mps-1) | IC50 (human Bub1)
Cc1nsc(Nc2ncc(C(=O)N(C)C)s2)c1C(=O)Nc1ccc(F)c(F)c1 [Example 49, N-(3,4-Difluorophenyl)-5-{[5-(dimethylcarbamoyl)-1,3-thiazol-2-yl]amino}-3-methyl-1,2-thiazole-4-carboxamide] | > 20 µM | > 20 µM
Cc1nsc(Nc2cncc(C(=O)N3CCOCC3)n2)c1C(=O)Nc1ccc(F)c(F)c1 [Example 107, N-(3,4-Difluorophenyl)-3-methyl-5-{[6-(morpholin-4-ylcarbonyl)pyrazin-2-yl]amino}-1,2-thiazole-4-carboxamide] | > 20 µM | > 20 µM
CCc1ccccc1NC(=O)c1c(C)nsc1Nc1cnccn1 [Example 1, N-(2-Ethylphenyl)-3-methyl-5-(pyrazin-2-ylamino)-1,2-thiazole-4-carboxamide] | > 20 µM | > 20 µM
COc1ncc(NC(=O)c2c(C)nsc2Nc2ccc(C#N)cn2)cc1C [Example 120, 5-[(5-Cyanopyridin-2-yl)amino]-N-(6-methoxy-5-methylpyridin-3-yl)-3-methyl-1,2-thiazole-4-carboxamide] | > 20 µM | > 20 µM
CCNC(=O)c1csc(Nc2snc(C)c2C(=O)Nc2ccc(F)c(F)c2)n1 [Example 99, N-(3,4-Difluorophenyl)-5-{[4-(ethylcarbamoyl)-1,3-thiazol-2-yl]amino}-3-methyl-1,2-thiazole-4-carboxamide] | > 20 µM | > 20 µM
CCc1ccnc(Nc2snc(C)c2C(=O)Nc2ccccc2CC)n1 [Example 17, N-(2-Ethylphenyl)-5-[(4-ethylpyrimidin-2-yl)amino]-3-methyl-1,2-thiazole-4-carboxamide] | > 20 µM | > 20 µM
Cc1nsc(Nc2ccc(C#N)cn2)c1C(=O)Nc1ccc(OC(C)C)nc1 [Example 110, 5-[(5-Cyanopyridin-2-yl)amino]-N-(6-isopropoxyridin-3-yl)-3-methyl-1,2-thiazole-4-carboxamide] | > 20 µM | > 20 µM
COc1ccc(NC(=O)c2c(C)nsc2Nc2ncccc2C#N)cn1 [Example 36, 5-[(3-Cyanopyridin-2-yl)amino]-N-(6-methoxypyridin-3-yl)-3-methyl-1,2-thiazole-4-carboxamide] | > 20 µM | –
CCOC(=O)c1coc(Nc2snc(C)c2C(=O)Nc2ccc(F)c(F)c2)n1 [Example 98, Ethyl 2-({4-[(3,4-difluoro-phenyl)carbamoyl]-3-methyl-1,2-thiazol-5-yl}amino)-1,3-oxazole-4-carboxylate] | 18 µM | > 20 µM
COC(=O)c1ccc(Nc2snc(C)c2C(=O)Nc2ccc(OC)nc2)nc1 [Example 31, Methyl 6-({4-[(6-methoxypyridin-3-yl)carbamoyl]-3-methyl-1,2-thiazol-5-yl}amino)-nicotinate] | > 20 µM | > 20 µM
CCc1ccccc1NC(=O)c1c(C)nsc1Nc1cnc2cc(F)ccc2n1 [Example 20, N-(2-Ethylphenyl)-5-[(6-fluoroquinoxalin-2-yl)amino]-3-methyl-1,2-thiazole-4-carboxamide] | > 20 µM | > 20 µM
